# Assay results taken from patent publication US11878970B2, “Allosteric chromenone inhibitors of phosphoinositide 3-kinase (PI3K) for the treatment of disease” (Petra Pharma Corporation, priority 2021, dated 2024).
# What was measured:
# [1] = biological target: T1, PI3K-α (PIK3CA) H1047R mutant, p110α/p85α complex (Homo sapiens, UniProt P42336, H1047R); test: PI3K-alpha kinase (PIK3CA) biochemical activity, ADP-Glo, H1047R mutant; conditions: Soy PI lipid substrate
# T1 construct: Recombinant, catalytically active human full length PIK3KA Wild-type and H1047R mutant; 6×His (N); purchased EMD Millipore Sigma 14-792M
# T1 sequence (P42336 whole entry H1047R): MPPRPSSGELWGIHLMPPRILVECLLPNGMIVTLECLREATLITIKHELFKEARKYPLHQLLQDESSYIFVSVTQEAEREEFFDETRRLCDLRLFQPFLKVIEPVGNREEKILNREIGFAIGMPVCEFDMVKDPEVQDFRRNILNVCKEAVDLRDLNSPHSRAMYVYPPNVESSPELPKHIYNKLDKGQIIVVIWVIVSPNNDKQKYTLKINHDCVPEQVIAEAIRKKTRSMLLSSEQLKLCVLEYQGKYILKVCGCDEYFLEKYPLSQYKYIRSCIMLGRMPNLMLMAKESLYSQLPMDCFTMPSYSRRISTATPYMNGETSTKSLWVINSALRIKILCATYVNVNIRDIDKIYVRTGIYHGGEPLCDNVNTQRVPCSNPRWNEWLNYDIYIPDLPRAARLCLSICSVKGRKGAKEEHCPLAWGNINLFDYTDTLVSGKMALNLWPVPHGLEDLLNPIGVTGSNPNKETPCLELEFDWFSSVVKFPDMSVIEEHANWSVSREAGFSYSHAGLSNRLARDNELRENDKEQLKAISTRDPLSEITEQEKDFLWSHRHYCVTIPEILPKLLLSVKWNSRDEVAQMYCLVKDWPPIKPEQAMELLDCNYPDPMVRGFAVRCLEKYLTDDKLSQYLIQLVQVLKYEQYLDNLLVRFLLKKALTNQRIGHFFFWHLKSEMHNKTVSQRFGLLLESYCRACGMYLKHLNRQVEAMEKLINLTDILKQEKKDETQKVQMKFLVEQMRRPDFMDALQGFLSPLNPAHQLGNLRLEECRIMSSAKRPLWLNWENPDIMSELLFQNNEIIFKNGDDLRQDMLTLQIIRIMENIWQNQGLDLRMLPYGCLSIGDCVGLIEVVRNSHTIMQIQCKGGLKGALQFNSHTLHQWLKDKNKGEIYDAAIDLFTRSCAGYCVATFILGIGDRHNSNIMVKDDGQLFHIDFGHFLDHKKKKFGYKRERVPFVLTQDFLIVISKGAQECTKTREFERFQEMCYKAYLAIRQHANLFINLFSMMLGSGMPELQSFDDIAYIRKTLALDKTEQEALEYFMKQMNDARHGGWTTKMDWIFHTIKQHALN
# T1 sequence (P27986 whole entry partner): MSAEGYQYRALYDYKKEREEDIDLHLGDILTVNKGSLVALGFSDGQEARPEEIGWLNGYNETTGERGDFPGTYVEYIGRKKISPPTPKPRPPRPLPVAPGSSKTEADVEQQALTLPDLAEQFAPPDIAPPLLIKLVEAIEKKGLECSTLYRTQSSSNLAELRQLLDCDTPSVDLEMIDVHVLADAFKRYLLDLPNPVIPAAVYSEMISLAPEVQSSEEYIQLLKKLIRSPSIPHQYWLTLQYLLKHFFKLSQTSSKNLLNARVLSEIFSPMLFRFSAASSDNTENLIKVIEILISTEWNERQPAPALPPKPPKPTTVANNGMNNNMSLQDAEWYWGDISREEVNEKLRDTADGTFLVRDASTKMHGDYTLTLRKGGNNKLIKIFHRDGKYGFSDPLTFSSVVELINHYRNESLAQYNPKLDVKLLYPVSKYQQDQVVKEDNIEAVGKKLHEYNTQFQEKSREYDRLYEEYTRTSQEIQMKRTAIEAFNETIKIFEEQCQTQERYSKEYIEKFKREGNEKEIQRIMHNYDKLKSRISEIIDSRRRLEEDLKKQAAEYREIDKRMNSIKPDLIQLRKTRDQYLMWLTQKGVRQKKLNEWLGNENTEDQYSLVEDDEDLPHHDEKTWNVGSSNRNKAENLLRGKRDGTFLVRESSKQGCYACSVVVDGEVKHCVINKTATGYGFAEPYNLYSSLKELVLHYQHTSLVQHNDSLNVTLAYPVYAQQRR
# Text: (§1) PI3K-Alpha Kinase (PIK3CA) Activity, Wild-Type and H1047R Mutant and Determining IC50 Values for Inhibitors
# (§2) Recombinant, catalytically active human full length PIK3KA Wild-type and H1047R mutant were purchased as 1:1 complex of N-terminal 6×his tagged p110α (catalytic) and untagged p85α (regulatory subunit) from EMD Millipore Sigma (cat. no. 14-602M and 14-792M, respectively). PIP2diC8 (Avanti Polar Lipids Inc., cat. no. 850185) or Soy PI (Avanti Polar Lipids Inc., cat. No. 840044P) was used as lipid substrate. PIP2diC8 or PI lyophilized powder was dissolved in milliQ water to a concentration of 1 mM just before use. 10 mM stock compounds in DMSO were serially diluted 1:3 to generate a 10-point curve and plated using an acoustic liquid handler system (Echo 550 series instrument, Labcyte). A 10× intermediate compound plate (200 uM starting compound concentration and 10% DMSO) was prepared before starting the reaction. A typical reaction mixture (50 uL) comprised 40 mM HEPES buffer, pH 7.4, 25 mM MgCl2, 0.01% v/v triton-X-100, 1% v/v DMSO, 20 mM NaCl, 1-5 nM WT or H1047R PI3K protein, 20 uM ATP, and 50 uM PIP2diC8 or Soy PI. 1% DMSO buffer alone without test compound was employed as MAX control (full activity in the absence of any inhibitor), and no enzyme control was used to determine the level of background Adenosine 5′-diphosphate (ADP) (MIN control). First, Wild-type (WT) and H1047R mutant protein in kinase buffer with all components except ATP were incubated with or without compound at 27° C. for 1 h. After the pre-incubation, the reaction was initiated by the addition of 20 uL of 50 uM ATP (20 uM final concentration). The reaction was allowed to proceed until about 10% conversion of ATP (2 uM ADP) at 27° C. After that time, 5 uL of reaction was mixed with 5 uL of ADP-Kinase Glo Reagent (ADP-Glo Kinase assay kit, Promega cat. no. V9102) supplemented with MgCl2 10 mM to stop the reaction and deplete the remaining ATP for 40 min at room temperature. Then, 10 uL of Kinase Detection Reagent (ADP-Glo Kinase assay kit, Promega cat. no. V9102) was added to simultaneously convert ADP to ATP and allow the newly synthesized ATP to be measured using a luciferase/luciferin reaction. After 30 min at room temperature the light generated was measured using a luminometer (EnVision plate reader, Perkin Elmer). Process data through Genedata-Screener tool. Relative IC50 values are determined using luminescence units by calculating percent inhibition with respect to on-plate “MIN” and “MAX” controls. Data was analyzed using a 4-parameter nonlinear logistic equation (four-parameter logistic concentration-response curve): Y=bot+[(top−bot)/1+(x/IC50)slope] where Y=% inhibition, X=concentration yielding y % inhibition, Bottom=minimum value of y attained by curve, Top=maximum value of y attained by curve and Slope=steepness of curve at IC50. % Inh=[(median Max−x/median Max−median Min)]·100 IC50: concentration of compound that reduces a given response (ligand binding, enzyme response) by 50%. IC50 relative: concentration giving half the compound's maximum response.
# [2] = biological target: T2, PI3K-α (PIK3CA) wild-type (WT), p110α/p85α complex (Homo sapiens, UniProt P42336); test: PI3K-alpha kinase (PIK3CA) biochemical activity, ADP-Glo, wild-type; conditions: Soy PI lipid substrate
# T2 construct: Recombinant, catalytically active human full length PIK3KA Wild-type and H1047R mutant; 6×His (N); purchased EMD Millipore Sigma 14-602M
# Text: as §1, §2
IC50 [1] [nM],IC50 [2] [nM],Structure (SMILES)
1000 to 5000,> 10000,"Cc1cc(C(C)Nc2ccc(F)c(F)c2C(=O)O)c2oc(-c3ccc4nc(C)cn4n3)cc(=O)c2c1 (centres unmarked) [Example 94, 2,3-Difluoro-6-[1-[6-methyl-2-(2-methylimidazo[1,2-b]pyridazin-6-yl)-4-oxo-chromen-8-yl]ethylamino]benzoic acid]"
< 500,500 to 1000,"Cc1cc(C(C)Nc2ccc(Cl)nc2C(=O)O)c2oc(-c3ccc4nn(C)cc4c3)cc(=O)c2c1 (single isomer, unassigned) [Example 83, 6-Chloro-3-[1-[6-methyl-2-(2-methylindazol-5-yl)-4-oxo-chromen-8-yl]ethylamino]pyridine-2-carboxylic acid]"
< 500,1000 to 5000,"Cc1cc(C(C)Nc2ccccc2C(=O)O)c2oc(-c3ccc4c(c3)CN(C)C4=O)cc(=O)c2c1 (single isomer, unassigned) [Example 31, 2-[1-[6-Methyl-2-(2-methyl-1-oxo-isoindolin-5-yl)-4-oxo-chromen-8-yl]ethylamino]benzoic acid]"
< 500,500 to 1000,"Cc1cc(C(C)Nc2ccc(C)nc2C(=O)O)c2oc(-c3ccc4nn(C)cc4c3)c(C)c(=O)c2c1 (single isomer, unassigned) [Example 175, 3-[1-[3,6-Dimethyl-2-(2-methylindazol-5-yl)-4-oxo-chromen-8-yl]ethylamino]-6-methyl-pyridine-2-carboxylic acid]"
1000 to 5000,5000 to 10000,"Cc1cc(C(C)Nc2ccccc2C(=O)O)c2oc(-c3cn4ccccc4n3)cc(=O)c2c1 (single isomer, unassigned) [Example 66, 2-[1-(2-Imidazo[1,2-a]pyridin-2-yl-6-methyl-4-oxo-chromen-8-yl)ethylamino]benzoic acid]"
< 500,1000 to 5000,"Cc1cc(C(C)Nc2ccccc2C(=O)O)c2oc(-c3cnc4nn(C)cc4c3)cc(=O)c2c1 (single isomer, unassigned) [Example 42, 2-[1-[6-Methyl-2-(2-methylpyrazolo[3,4-b]pyridin-5-yl)-4-oxo-chromen-8-yl]ethylamino]benzoic acid]"
< 500,< 500,"Cc1cc(C(C)Nc2ccccc2C(=O)O)c2oc(-c3ccc4nn(C)cc4c3)c(C(F)(F)F)c(=O)c2c1 (single isomer, unassigned) [Example 208, 2-[1-[6-Methyl-2-(2-methylindazol-5-yl)-4-oxo-3-(trifluoromethyl)chromen-8-yl]ethylamino]benzoic acid]"
< 500,500 to 1000,"Cc1cc(C(C)Nc2ccccc2C(=O)O)c2oc(-c3nn(C)c4ccccc34)c(C)c(=O)c2c1 (single isomer, unassigned) [Example 146, 2-[1-[3,6-Dimethyl-2-(1-methylindazol-3-yl)-4-oxo-chromen-8-yl]ethylamino]benzoic acid]"
< 500,1000 to 5000,"Cc1cc(C(C)Nc2ccccc2C(=O)O)c2oc(-c3ccc4nccn4n3)cc(=O)c2c1 (centres unmarked) [Example 15, 2-[1-(2-Imidazo[1,2-b]pyridazin-6-yl-6-methyl-4-oxo-chromen-8-yl)ethylamino]benzoic acid]"
1000 to 5000,1000 to 5000,"Cc1cc(C(C)Nc2ccc(C)nc2C(=O)O)c2oc(-c3cc4ccccc4[nH]3)cc(=O)c2c1 (centres unmarked) [Example 99, 3-[1-[2-(1H-Indol-2-yl)-6-methyl-4-oxo-chromen-8-yl]ethylamino]-6-methyl-pyridine-2-carboxylic acid]"
< 500,1000 to 5000,"Cc1cc(C(C)Nc2ccccc2C(=O)O)c2oc(-c3c[nH]c4ccccc34)c(C)c(=O)c2c1 (single isomer, unassigned) [Example 154, 2-[1-[2-(1H-Indol-3-yl)-3,6-dimethyl-4-oxo-chromen-8-yl]ethylamino]benzoic acid]"
< 500,1000 to 5000,"Cc1cc(C(C)Nc2ccccc2C(=O)O)c2oc(-c3ccc4nc(C(F)(F)F)cn4c3)c(C)c(=O)c2c1 (single isomer, unassigned) [Example 186, 2-[1-[3,6-Dimethyl-4-oxo-2-[2-(trifluoromethyl)imidazo[1,2-a]pyridin-6-yl]chromen-8-yl]ethylamino]benzoic acid]"
5000 to 10000,5000 to 10000,"Cc1cc(C(C)Nc2ccccc2C(=O)O)c2oc(-c3nccc4cn(C)nc34)cc(=O)c2c1 (single isomer, unassigned) [Example 98, 2-[1-[6-Methyl-2-(2-methylpyrazolo[3,4-c]pyridin-7-yl)-4-oxo-chromen-8-yl]ethylamino]benzoic acid]"
< 500,1000 to 5000,"Cc1cc(C(C)Nc2ccccc2C(=O)O)c2oc(-c3ccc4nc(C)cn4c3)cc(=O)c2c1 (single isomer, unassigned) [Example 38, 2-[1-[6-Methyl-2-(2-methylimidazo[1,2-a]pyridin-6-yl)-4-oxo-chromen-8-yl]ethylamino]benzoic acid]"
< 500,1000 to 5000,"Cc1cc(C(C)Nc2ccccc2C(=O)O)c2oc(-c3ccc4c(C)n[nH]c4c3)cc(=O)c2c1 (single isomer, unassigned) [Example 28, 2-[1-[6-Methyl-2-(3-methyl-1H-indazol-6-yl)-4-oxo-chromen-8-yl]ethylamino]benzoic acid]"
< 500,1000 to 5000,"Cc1cc(C(C)Nc2ccccc2C(=O)O)c2oc(-c3ccc4cn[nH]c4n3)cc(=O)c2c1 (single isomer, unassigned) [Example 121, 2-[1-[6-Methyl-4-oxo-2-(1H-pyrazolo[3,4-b]pyridin-6-yl)chromen-8-yl]ethylamino]benzoic acid]"
< 500,< 500,"Cc1cc(C(C)Nc2ccc(Cl)nc2C(=O)O)c2oc(-c3nn(C)c4ccccc34)cc(=O)c2c1 (single isomer, unassigned) [Example 177, 6-Chloro-3-[1-[6-methyl-2-(1-methylindazol-3-yl)-4-oxo-chromen-8-yl]ethylamino]pyridine-2-carboxylic acid]"
< 500,1000 to 5000,"Cc1cc(C(C)Nc2ccccc2C(=O)O)c2oc(-c3cc4ncccc4[nH]3)cc(=O)c2c1 (single isomer, unassigned) [Example 147, 2-[1-[6-Methyl-4-oxo-2-(1H-pyrrolo[3,2-b]pyridin-2-yl)chromen-8-yl]ethylamino]benzoic acid]"
< 500,500 to 1000,"Cc1c(-c2cc3ccccc3[nH]2)oc2c(C(C)Nc3ccccc3C(=O)O)cc(F)cc2c1=O (single isomer, unassigned) [Example 129, 2-[1-[6-Fluoro-2-(1H-indol-2-yl)-3-methyl-4-oxo-chromen-8-yl]ethylamino]benzoic acid]"
< 500,1000 to 5000,"Cc1cc(C(C)Nc2cccc(F)c2C(=O)O)c2oc(-c3ccc4nn(C)cc4c3)cc(=O)c2c1 (centres unmarked) [Example 103, 2-Fluoro-6-[1-[6-methyl-2-(2-methylindazol-5-yl)-4-oxo-chromen-8-yl]ethylamino]benzoic acid]"
1000 to 5000,5000 to 10000,"Cc1cc(C(C)Nc2ccccc2C(=O)O)c2oc(-c3nccc4cnn(C)c34)cc(=O)c2c1 (single isomer, unassigned) [Example 96, 2-[1-[6-Methyl-2-(1-methylpyrazolo[3,4-c]pyridin-7-yl)-4-oxo-chromen-8-yl]ethylamino]benzoic acid]"
< 500,1000 to 5000,"Cc1cc(C(C)Nc2ccc(Cl)c(F)c2C(=O)O)c2oc(-c3c(C)nc4ccccn34)cc(=O)c2c1 (single isomer, unassigned) [Example 182, 3-Chloro-2-fluoro-6-[1-[6-methyl-2-(2-methylimidazo[1,2-a]pyridin-3-yl)-4-oxo-chromen-8-yl]ethylamino]benzoic acid]"
